From patent US10221163B2 (priority 2015, dated 2019)
Like-named read-outs stand apart in the source and are kept apart here.

Key:
[1] = system: Pseudomonas aeruginosa efflux+ (MB9798), IMP-1; type: cell-based; details: concentration restoring susceptibility to imipenem at 2 μg/mL in the presence of a class A, C, D serine β-lactamase inhibitor closely related to relebactam
How it was run: (§1)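 PAO1 pair, broth microdilution; fixed β-lactam (imipenem/ceftazidime) at ~CLSI breakpoint + fixed class A/C BLI for AmpC; serial MBLi titration; endpoint = MBLi conc. restoring susceptibility; MB9798:MB9799 ratio = efflux liability.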

[2] = system: Pseudomonas aeruginosa efflux− (MB9799), IMP-1; type: cell-based; details: concentration restoring susceptibility to imipenem at 2 μg/mL in the presence of a class A, C, D serine β-lactamase inhibitor closely related to relebactam
How it was run: as §1

[3] = system: Pseudomonas aeruginosa MB9798 vs MB9799; details: ratio MITC95 PA_9798/MITC95 PA_9799
How it was run: as §1

[4] = system: Klebsiella pneumoniae expressing VIM-1 (IHMA599644); type: cell-based; details: for Klebsiella pneumoniae MITC95: VIM-1 strain IHMA599644, with imipenem 1 μg/ml, 95% inhibition of growth; for Klebsiella pneumoniae expressing VIM-1 (IHMA599644) MITC95: with imipenem 1 μg/ml, 95% inhibition of bacterial growth
How it was run: (§2)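 Colonies grown overnight on blood agar at 35° C were suspended in saline, diluted 1:100 into 1.1×CAMHB and dispensed. Imipenem was added to 1 μg/ml, then test compound. After 22 hours to 24 hours at 35° C, absorbance was recorded.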

[5] = system: Serratia marcescens expressing IMP-1 (CL5741); type: cell-based; details: for Serratia marcescens MITC95: IMP-1 strain CL5741, with imipenem 1 μg/ml, 95% inhibition of growth; for Serratia marcescens expressing IMP-1 (CL5741) MITC95: with imipenem 1 μg/ml, 95% inhibition of bacterial growth
How it was run: as §2

[6] = system: Escherichia coli expressing NDM-1 (CLB30005, CLB30016); type: cell-based; details: with imipenem 1 μg/ml; for Escherichia coli MITC95: NDM-1 strain, 95% inhibition of growth; for Escherichia coli expressing NDM-1 (CLB30016) MITC95: 95% inhibition of bacterial growth
How it was run: as §2

NDM-1 = NDM-1 (Klebsiella pneumoniae, UniProt C7C422); assay: biochemical; type: biochemical; details: fluorescence assay, CCF2-FA substrate, 1 pM enzyme, 2 hours at 25° C.; read-out: NDM-1 IC50
NDM-1, sequence (C7C422 whole entry, looked up, species assumed): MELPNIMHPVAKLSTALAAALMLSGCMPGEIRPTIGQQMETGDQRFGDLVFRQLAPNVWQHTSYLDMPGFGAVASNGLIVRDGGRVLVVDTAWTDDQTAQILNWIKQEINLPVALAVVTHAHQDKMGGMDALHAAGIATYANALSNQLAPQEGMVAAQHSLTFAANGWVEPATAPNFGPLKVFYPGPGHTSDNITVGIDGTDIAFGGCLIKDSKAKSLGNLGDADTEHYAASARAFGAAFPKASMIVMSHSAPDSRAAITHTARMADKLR
How it was run: (§3)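 Enzyme activity was measured by fluorescence using CCF2-FA, a cephalosporin-linked 7-hydroxycoumarin/fluorescein substrate, with inhibitor, metallo-β-lactamase and substrate incubated together for 2 hours at 25° C. IC50 came from a 4-parameter fit of inhibition versus log inhibitor concentration.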

IMP-1 = IMP-1 (Serratia marcescens, UniProt P52699); assay: biochemical; type: biochemical; details: fluorescence assay, CCF2-FA substrate, 2 pM enzyme, 2 hours at 25° C.; read-out: IMP-1 IC50
IMP-1, sequence (P52699 whole entry, looked up, species assumed): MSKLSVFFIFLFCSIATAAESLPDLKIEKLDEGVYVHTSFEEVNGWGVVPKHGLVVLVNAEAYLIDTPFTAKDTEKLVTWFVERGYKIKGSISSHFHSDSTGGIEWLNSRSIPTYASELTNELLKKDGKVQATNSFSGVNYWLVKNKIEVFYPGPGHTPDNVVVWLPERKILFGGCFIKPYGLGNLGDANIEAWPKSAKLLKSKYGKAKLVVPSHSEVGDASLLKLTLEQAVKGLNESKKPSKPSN
How it was run: as §3

VIM-1 = VIM-1 (Pseudomonas aeruginosa (strain ATCC 15692 / DSM 22644 / CIP 104116 / JCM 14847 / LMG 12228 / 1C / PRS 101 / PAO1), UniProt A0A0F7KYQ8); assay: biochemical; details: CCF2-FA substrate, 30 pM enzyme, 2 hours at 25° C.
How it was run: as §3

[7] = fluorescence assay, read-out: VIM-1 IC50

SMILES	P. aeruginosa expressing IMP-1, efflux + (MB9798) MITC95 [1] [µM]	P. aeruginosa expressing IMP-1, efflux − (MB9799) MITC95 [2] [µM]	Efflux ratio [3]	Klebsiella pneumoniae MITC95 [4] [µM]	Serratia marcescens MITC95 [5] [µM]	Escherichia coli MITC95 [6] [µM]	IC50 (NDM-1) [nM]	IC50 (IMP-1) [nM]	IC50 (VIM-1; VIM-1 IC50, fluorescence assay) [nM]	Klebsiella pneumoniae expressing VIM-1 (IHMA599644) MITC95 [4] [µM]	Serratia marcescens expressing IMP-1 (CL5741) MITC95 [5] [µM]	Escherichia coli expressing NDM-1 (CLB30016) MITC95 [6] [µM]	IC50 (VIM-1; [7]) [nM]
Cn1c(N)nc2c(-c3ccc(S(=O)(=O)NC[C@@H](O)CN)c(S(N)(=O)=O)c3-c3nn[nH]n3)cccc21 [Example 308, (S)-4-(2-amino-1-methyl-1H-benzo[d]imidazol-4-yl)-N1-(3-amino-2-hydroxypropyl)-3-(2H-tetrazol-5-yl)benzene-1,2-disulfonamide]	0.7813	0.7813	1.00	1.563	0.7813	0.3906	0.0619	0.403	0.179	–	–	–	–
NS(=O)(=O)c1c(S(=O)(=O)N[C@@H]2CCNC2)ccc(-c2cnc3ccccn23)c1-c1nnn[nH]1 [Example 140, (R)-4-(imidazo[1,2-a]pyridin-3-yl)-N1-(pyrrolidin-3-yl)-3-(1H-tetrazol-5-yl)benzene-1,2-disulfonamide]	1.563	0.7813	2.00	–	–	–	0.0867	0.779	–	1.563	1.563	0.7813	0.111
Nc1nc2c(-c3ccc(S(=O)(=O)N4CCOCC4)c(S(N)(=O)=O)c3-c3nnn[nH]3)cccc2s1 [Example 29, 3-(2-amino-1,3-benzothiazol-4-yl)-6-(morpholin-4-ylsulfonyl)-2-(1H-tetrazol-5-yl)benzenesulfonamide]	50	3.125	16.00	–	–	–	1.35	2.08	3.06	25	6.25	25	–
NCCNS(=O)(=O)c1ccc(-c2cccc3sc(N)nc23)c(-c2nn[nH]n2)c1S(N)(=O)=O [Example 145, 4-(2-aminobenzo[d]thiazol-4-yl)-N1-(2-aminoethyl)-3-(2H-tetrazol-5-yl)benzene-1,2-disulfonamide]	0.3906	0.7813	0.50	–	–	–	0.0343	0.221	–	1.563	0.7813	0.7813	0.182
CN(C1CNC1)S(=O)(=O)c1ccc(-c2cccc3[nH]c(N)nc23)c(-c2nn[nH]n2)c1S(N)(=O)=O [Example 255, 4-(2-amino-1H-benzo[d]imidazol-4-yl)-N1-(azetidin-3-yl)-N1-methyl-3-(2H-tetrazol-5-yl)benzene-1,2-disulfonamide]	1.563	0.7813	2.00	0.7813	0.7813	0.3906	0.113	2.84	–	–	–	–	0.936
CC1(CN)CN(S(=O)(=O)c2ccc(-c3cccc4sc(N)nc34)c(-c3nnn[nH]3)c2S(N)(=O)=O)C1.O=C(O)C(F)(F)F [Example 101, (1-((4-(2-aminobenzo[d]thiazol-4-yl)-2-sulfamoyl-3-(1H-tetrazol-5-yl)phenyl)sulfonyl)-3-methylazetidin-3-yl)methanaminium 2,2,2-trifluoroacetate]	3.125	3.125	1.00	–	–	–	0.288	1.25	0.744	6.25	3.125	3.125	–
Nc1nc2c(-c3ccc(S(=O)(=O)NC[C@H](N)CO)c(S(N)(=O)=O)c3-c3nn[nH]n3)cccc2[nH]1 [Example 191, 4-(2-amino-1H-benzo[d]imidazol-4-yl)-N^1—((S)-2-amino-3-hydroxypropyl)-3-(2H-tetrazol-5-yl)benzene-1,2-disulfonamide]	0.4453	0.4453	1.00	–	–	–	0.0469	0.433	–	0.8906	0.8906	0.25	0.173
Nc1ccc(-c2ccc(S(=O)(=O)NC[C@H]3CNCCN3)c(S(N)(=O)=O)c2-c2nn[nH]n2)cn1 [Example 315, (R)-4-(6-aminopyridin-3-yl)-N1-(piperazin-2-ylmethyl)-3-(1H-tetrazol-5-yl)benzene-1,2-disulfonamide]	1.563	1.563	1.00	6.25	0.7813	0.3906	0.169	0.459	0.211	–	–	–	–
NCCNS(=O)(=O)c1ccc(-c2cccc(NC[C@@H](N)CO)c2)c(-c2nn[nH]n2)c1S(N)(=O)=O [Example 349, (R)-3′-((2-amino-3-hydroxypropyl)amino)-N4-(2-aminoethyl)-2-(2H-tetrazol-5-yl)-[1,1′-biphenyl]-3,4-disulfonamide]	1.563	0.7813	2.00	1.563	1.563	1.563	1.62	5.65	–	–	–	–	0.433
